Tested on: βarr1-3Q (K232Q/R236Q/K250Q)
Assay: 1D 19F NMR of PIP2-binding deficient mutant
Type: biochemical, human
Settings: H295C site
Procedure: The ^19F-labeled βarr1 was diluted to 50 μM using buffer E before incubation with peptides or PIP2. The V2Rpp, β2AR-GRK2pp/GRK6pp or PIP2 were added at 1.2-fold, 3-fold, and 1.5-fold molar ratio excess to the protein, respectively. For the membrane-bound sample, the reconstituted nanodiscs were added at twofold molar ratio of βarr1. All complexes were incubated at 25 °C for 1 h, and the freshly prepared samples were immediately subjected to ^19F NMR experiments.
NMR samples were prepared in buffer E to a final volume of 140 μL, supplemented with 1 mM DTT, 10% D2O for field lock, and 1 μM sodium trifluoroacetate (STFA) as the internal chemical shift reference. All samples were sterile-filtered and loaded into sterile 3 mm NMR microtubes to prevent microbial contamination. Final protein concentrations vary for different constructs, depending on their expression levels and stabilities, but all in the range of 20–50 μM.
All ^19F NMR spectra were recorded at 298 K using a Bruker AVANCE III HD 800 MHz spectrometer equipped with a ^1H-^19F/^13C/^15N TCI triple resonance cryogenic probe. […] The carrier frequency was set to −68.0 ppm and the spectra were recorded with 4k points and a spectral width of 15,000 Hz. […]
All NMR data were analyzed using the MestraNova 12.0.0 software (https://mnova.pl). […] Peak intensities, integrated peak area and linewidths were determined based on the fitted results.

Q: For `CCCCCCCC(=O)OC[C@H](COP(=O)(O)O[C@@H]1[C@H](O)[C@H](O)[C@@H](OP(=O)(O)O)[C@H](OP(=O)(O)O)[C@H]1O)OC(=O)CCCCCCC` [PIP2, diC8-PI(4,5)P2], which “Transition to S2 state” value is on record?
A: such spectral changes were not observed
